In patent US9993487B2 (Universite de Liege, priority 2014, dated 2018):

What was measured:
[1] = Stability of betamethasone dipropionate under autoclave; assay type: physicochemical
[2] = test system: Cigarette smoke-exposed mice; assay: Cigarette smoke exposure model: BALF neutrophils; assay type: in vivo, C57BL/6 mice; conditions: budesonide alone about 500 μg/ml
Method: BALF supernatant is collected for protein assessment while cells are used for differential cell counts. Differential cell counts based on morphologic criteria are carried out on cytocentrifuged preparations after staining with haematoxylin-eosin (Diff-Quick, Dade, Belgium). Cells are recovered by gentle manual aspiration. After centrifugation of bronchoalveolar fluid (BALF) (about 1200 rpm for about 10 minutes, at about 4° C.), the supernatant is frozen at about −80° C. for protein assessment and the cell pellet is re-suspended in about 1 ml PBS-EDTA about 0.05 mM. The differential cell counts are performed on cytocentrifuged preparations (Cytospin) after staining with Diff-Quick (Dade, Belgium).
C57BL/6 mice are exposed to 10 cigarettes 5 days per week during 6 weeks using the Inexpose® system (Scireq, Montreal, Canada). Mice are treated by an about 50 μl intra-nasal injection 5 days per week during 6 weeks. Mice are sacrificed on day 43. Placebo mices also called sham exposed mices are injected with PBS.
Bronchoalveolar lavage fluid (BALF) analysis is the same as previously described in Example 3 (model of airway obstruction and inflammation).
Results of inflammatory cells in bronchoalveolar lavage fluid number were expressed as mean +/− SEM and the comparison between the groups is performed using Mann-Whitney test. Tests are performed using GraphPad Prism 5. […]

[3] = test system: IL13; assay: OVA model: IL13 ELISA in lung protein extracts; assay type: in vivo, BALB/c mice; conditions: FIG. 3
Method: In order to study modulation of airway inflammation, BALB/c mice of about 6 to about 8 weeks old are sensitized by intraperitoneal injection of about 10 μg ovalbumin (OVA) (Sigma Aldrich, Schnelldorf, Germany) emulsified in aluminum hydroxide (AlumInject; Perbio, Erembodegem, Belgium) on days 0 (DO) and 7 (D7). Mice are subsequently exposed to allergens by daily inhalation of an aerosol of OVA about 1%, for about 30 minutes, generated by ultrasonic nebulizer (Devilbiss 2000), from day 21 to day 25. Mice are subjected to about 50 μl intra-nasal instillations from day 18 to day 24 and are sacrificed on day 26, as previously reported by Cataldo et al.: Am. J. Pathol. 161 (2):491-498 (2002), which is incorporated herein in its entirety by reference. Placebo mice are intra-nasal injected with PBS. As stated above, the left lung is excised and frozen immediately at about −80° C. and then disrupted in liquid N2 by using a Mikro-Dismembrator (Braun Biotech International, Gmbh Melsungen, Germany) to form a homogenized powder. […] IL13 levels are measured in non-pooled lung protein samples by ELISA (duoset kit, R&D Systems, Abingdon, United Kingdom) following manufacturer's instructions. […]

stability under autoclave [1]	Structure (SMILES)	inflammation level in BALF of treated mice [2]	Percentage of neutrophils (+/−SEM) in BALF, Neutrophils (%) ([2]; about 50 μl intra-nasal 5 days per week during 6 weeks)	IL13 levels in lung tissue after allergen exposure ([3]; budesonide about 100 μg/ml compared to budesonide about 100 μg/ml—cyclodextrin about 10 mM)	IL13 levels in lung tissue after allergen exposure ([3]; budesonide about 250 μg/ml compared to complex budesonide about 250 μg/ml—cyclodextrin about 10 mM)
degrades under autoclave	CCC(=O)OCC(=O)[C@@]1(OC(=O)CC)[C@@H](C)C[C@H]2[C@@H]3CCC4=CC(=O)C=C[C@]4(C)[C@@]3(F)[C@@H](O)C[C@@]21C [Betamethasone Dipropionate]	–	–	–	–
–	CCCC1O[C@@H]2C[C@H]3[C@@H]4CCC5=CC(=O)C=C[C@]5(C)[C@H]4[C@@H](O)C[C@]3(C)[C@]2(C(=O)CO)O1 (stereo partly drawn) [budesonide, 16,17-(butylidenebis(oxy))-11,21-dihydroxy-, (11-β3,16-a)-pregna-1,4-diene-3,20-dione]	significantly not efficient enough	about 9.64%	higher IL13 levels	higher levels of IL13
